The values below come from a melting point compilation (Tetko et al.; mined from patent text by program, amines drawn as free bases though some values may be those of a salt).

A value given as a limit tells only on which side of the number the result lay.

Consider `O=C(O)c1ccc2cc(Cl)ccn2c1=O`, for which the melting point (usually the temperature of the solid-liquid transition) was above 250 °C.

With `COC(=O)c1cc(N)nc(-c2ccc(Cl)cc2F)n1`, the melting point lay in the range of 210 to 213 °C.

Turning to `CC(C)c1ccc(C=CC(=O)c2ccc(O)c(CC(=O)O)c2)cc1`, the melting point is 228 °C.

In turn, `Cc1cccc(C(=O)NC(C)C)c1N` gave a melting point of 149 to 151 °C.

In turn, `CCc1nc2cnc3ccc(OCc4ccccc4)cc3c2n1C` had a melting point of 168 to 169 °C.

As for `CCCC(CCC)NC(=O)Nc1ccc(OC)cc1OC`, the melting point was in the range of 172 to 173 °C.

Take `CC(=O)N=C(N(C)C(C)=O)N(C)C1CCN(c2nc3ccccc3n2Cc2ccc(F)cc2)CC1`: the melting point was 176 °C.

Turning to `CCOCc1nc2c(N)nc3ccccc3c2n1CCCCS(=O)(=O)Nc1ccccn1`, the melting point is 197 to 200 °C.

In turn, `CCOC(=O)C=Cc1ccc(OCCCc2ccccc2)c([N+](=O)[O-])c1` came in with a melting point of 67 to 69 °C.

For the molecule `CCc1noc(C(=NOC)c2ccccc2COc2cc(C)ccc2C)n1`, the melting point worked out at 112 °C.

`O=C(O)c1ccc(Oc2ccc([N+](=O)[O-])cc2)cc1O` yielded a melting point of 195 to 197 °C.

In the case of `CN1CCCC1=Cc1ccc(Br)cc1`, the melting point lay within 83 to 84 °C.

Turning to `COC(=O)C(NC(C)=O)C(=O)OCCCl` (stereo not drawn), the melting point lay in the range of 81 to 82 °C.

Consider `CSC(=S)NN=Cc1c[nH]c(C)n1`, for which the melting point fell in the range of 274 to 279 °C.

The molecule `CSc1csc2ccc(Br)cc12` returned a melting point of 56 to 57 °C.

Regarding `CCCOC(=O)c1ccc(OC(=O)c2ccccc2C(=O)Oc2ccc(C(=O)OCCC)cc2)cc1`, the melting point is 87 to 89 °C.

Take `CCc1cccc(CC(=O)O)c1OCCCc1cc(OC(C)C)nn1Cc1ccc(Cl)cc1Cl`: the melting point lay in the range of 98 to 99 °C.

On to `Oc1ccc2c(c1)CCN(Cc1ccc(-c3ccccc3)cc1)C2`, for which the melting point lay within 235 to 237 °C.

`c1cnc(NCCN2CCC(=C3c4ccccc4CCn4ncnc43)CC2)nc1` gave a melting point of 162 °C.

`CC(=O)N1CCN=C1C(O)(c1ccccc1)c1ccccn1` (stereo not drawn) gave a melting point of 150 to 153 °C.

In the case of `O=[N+]([O-])c1cccc(NS(=O)(=O)c2ccccc2)c1`, the melting point is 132 to 134 °C.

Regarding `CSc1nc(C)cc(-c2ccc(C(F)(F)F)cc2)n1`, the melting point was in the range of 77 to 80 °C.

`O=Cn1cc(Cl)c(-c2ccccc2C(F)(F)F)c1` yielded a melting point of 75 to 78 °C.

`CC(C)(C)c1nc(-c2ccc(F)cc2)c(-c2ccc(S(C)(=O)=O)cc2)s1` displayed a melting point of 144 to 145 °C.

Molecule `CC(CCC(F)(F)C(C)(C)O)C1CCC2C3CCC4=CC(=O)C=CC4(C)C3CCC12C` (stereo not drawn) gave a melting point of 176 to 177 °C.

Take `CCOC(=O)c1c(N2CCN(C)CC2)c2cc(Cl)ccc2n(C)c1=O`: the melting point fell in the range of 163 to 165 °C.

Molecule `CCc1nc(C)ccc1OC1SCC(OC(C)=O)C(OC(C)=O)C1OC(C)=O` (stereo not drawn) returned a melting point of 123 to 127 °C.

Molecule `COc1ccc(C(=O)Nc2cc3c(cc2CCC2CCCCN2C)OCO3)cc1` (stereo not drawn) registered a melting point of 112 to 113 °C.

Molecule `CC(=O)N1CCC(Oc2ccc([N+](=O)[O-])cc2C)CC1` returned a melting point of 139 to 141 °C.

Molecule `COC(=O)C(c1ccc(OCCNC(=O)C2Cc3ccccc3N2S(=O)(=O)c2ccc(-c3cc(C(F)(F)F)ccc3Cl)cc2)cc1)C(C)C` (stereo not drawn) showed a melting point of 68 to 75 °C.

The molecule `CCOCC1COc2c(cc(N)cc2C(F)(F)F)O1` (stereo not drawn) came in with a melting point of 96 to 98 °C.

Take `Cc1cc(-n2ccc(OCc3ccccc3)cc2=O)sc1C(=O)NCc1cccnc1`: the melting point fell in the range of 165 to 167 °C.

Consider `COc1ccc(-c2cc(-c3ccccc3)[nH]c2C(=O)NCc2ccc(C(=O)NCCS)cc2)cc1`, for which the melting point was in the range of 131 to 132 °C.

`CC(C)(C)OC(=O)CN(C(=O)CNC(=O)c1cc2ccccc2[nH]1)c1ccccc1` showed a melting point of 203 °C.

In turn, `C=CCN1C(=O)COc2ccc(C3CC(=O)C(C(CC)=NOCC)=C(O)C3)cc21` (stereo not drawn) came in with a melting point of 79 to 83 °C.

Molecule `CCOC(=O)Cc1csc(-c2ccccc2O)n1` came in with a melting point of 35.5 to 36.5 °C.

Turning to `C=C(C)C(C)n1c(=O)c(C(C)C)cc2c3c(cc(C)c21)C(C)C(C)(CI)O3` (stereo not drawn), the melting point fell in the range of 191 to 192 °C.

`COC(=O)C(=O)c1sccc1COc1ccccc1` showed a melting point of 98 to 99 °C.

Molecule `CCCc1c(OCCCCCOc2c(C(C)=O)ccc(OCC(=O)O)c2CCC)ccc(C(C)=O)c1O` gave a melting point of 86 to 89 °C.

`O=c1c2c(-c3ccccc3)n[nH]c2c2cccnc2n1-c1ccccc1` gave a melting point above 300 °C.

In turn, `CC1(N2C(=O)c3cccc([N+](=O)[O-])c3C2=O)CCC(=O)NC1=O` (stereo not drawn) had a melting point of 265 to 266 °C.

Regarding `O=C(Cn1cncn1)c1cccc2ccccc12`, the melting point came out at 130 °C.

On to `Cc1ccc(S(=O)(=O)N2CCN(Cc3ccccc3)CCN(S(=O)(=O)c3ccc(C)cc3)CCN(S(=O)(=O)c3ccc(C)cc3)CC2)cc1`, for which the melting point is 208 to 210 °C.

The molecule `O=C(NCCCCC1CCSS1)NCCCCC1CCSS1` (stereo not drawn) registered a melting point of 115 to 116 °C.

Turning to `Cc1ccc(N(c2ccc(C)c(C)c2)c2cccc3ccccc23)cc1C`, the melting point lay within 125 to 127 °C.

`COC(=O)Nc1nc2ccccc2n1C(=O)NC(=O)C(Cl)=C(Cl)Cl` yielded a melting point of 231 °C.

For the molecule `CC(C)n1nc(-c2cnc3[nH]cc(C(=O)N[C@H](C)C(=O)N4CC(C#N)C4)c3n2)c2ccc(Cl)cc21`, the melting point lay within 204 to 208 °C.

As to `CN(C(=O)c1ccc2nonc2c1)C1CCN(C(=O)OC(C)(C)C)CC1`, the melting point lay within 98 to 100 °C.

Turning to `CCOC(=O)C1C(N(C)C(=O)C(F)(F)F)C(=O)N1c1ccc(OC)cc1` (stereo not drawn), the melting point lay within 102 to 104 °C.

With `CC(=O)Oc1ccc(-c2ccc3cc(C(=O)O)ccc3c2)cc1`, the melting point lay within 256 to 258 °C.

For the molecule `C1=CCc2c3c(c4ccccc4c2=C1)=c1c(c2ccccc2c2ccccc12)=C3`, the melting point is 276 to 278 °C.

As for `COc1ccc(N2CCCN(c3c(C)c(C)c4c(c3C)CC(C)(C)O4)CC2)cc1`, the melting point lay within 105 to 107 °C.

In the case of `COC(=O)C1C=CCN2C(=O)C(C)(CCO)C(=O)N12` (stereo not drawn), the melting point fell in the range of 97 to 99 °C.

With `CC(CNC(=O)c1ccc(N2CCC(N3C(=O)C(F)(F)c4ccccc43)CC2)nn1)C1CC1` (stereo not drawn), the melting point lay within 51 to 53 °C.

Take `O=C(COc1ccc(Cl)cc1)N1Cc2ccc(C(=O)C(Cl)(Cl)Cl)n2Cc2ccccc21`: the melting point is 165 to 167 °C.

Turning to `Cc1nc[nH]c1CSCCN=C(NCCSCc1[nH]cnc1C)NC(N)=O`, the melting point was 60 to 70 °C.

In turn, `CN(C)C1(c2cccc(F)c2)CCC(=CC(=O)NCCc2c[nH]c3ccccc23)CC1` (stereo not drawn) had a melting point of 172 to 176 °C.

The molecule `NC(=O)CC1CCC(OCc2ccccc2)c2sccc21` (stereo not drawn) displayed a melting point of 139 to 143 °C.

On to `CC(=O)N1CCC(Oc2ccccc2N2CCCCC2)CC1`, for which the melting point lay within 69 to 70 °C.

`Cc1ccc(C(=O)Nc2cc(C(F)(F)F)ccn2)cc1/C=C/n1cnc2c(NC3CC3)ncnc21`: the melting point amounted to 232 °C.

For the molecule `CCc1ccc(C(=O)Nc2ccccc2)cc1Nc1cccc(C(F)(F)F)c1`, the melting point lay in the range of 133 to 134 °C.

`CCCCCCCCCCCNC(=O)N(CC)CC`: the melting point was 33 to 35 °C.

`COc1ccc(S(=O)(=O)Nc2c(C(=O)NO)cc(C)c(Cc3ccccc3)c2C#N)cc1` came in with a melting point of 175 °C.

As to `CC(C)(C)[Si](C)(C)OC1=Cc2ccccc2C1[Si](C)(C)C1C(O[Si](C)(C)C(C)(C)C)=Cc2ccccc21` (stereo not drawn), the melting point is 92 to 94 °C.

The molecule `Cc1ccc(NC(=O)N(C)C)cc1` yielded a melting point of 154 to 157 °C.

With `C=C1C[C@@H]2[C@H](CC[C@]3(C)C(=O)CC[C@@H]23)[C@@]2(C)CCC(=O)C(SCC)=C12`, the melting point was in the range of 140 to 145 °C.

The molecule `C=CCn1cc(F)cnc1=O` returned a melting point of 88 to 90 °C.

`CN(C)C1CCN(C2c3ccccc3Oc3ccccc32)CC1`: the melting point was in the range of 92 to 93 °C.

In the case of `Cc1cc2c(cc1Cl)NC(NC(C)C)=NS2(=O)=O`, the melting point was 120 to 122 °C.

With `CC(C#N)c1ccc(C(=O)c2ccc(Cl)s2)cc1` (stereo not drawn), the melting point came to 90 °C.

Molecule `COc1ccc(Cc2nc3cccc(NCc4ncc[nH]4)c3o2)cc1OC1CCCC1` displayed a melting point of 179 to 180 °C.

As to `CN1C(=O)CC[C@]2(C)c3ccc(-c4ccc5ncsc5c4)cc3CC[C@@H]12`, the melting point lay in the range of 183 to 187 °C.

`COC(=O)C(=Cc1ccccc1Cl)c1ccccc1`: the melting point is 67 to 69 °C.

For the molecule `COC(=O)c1ccc(OCc2ccccc2)cn1`, the melting point was in the range of 90 to 90.5 °C.

In turn, `CC(=O)Oc1cn(C(C)=O)c2ccccc12` gave a melting point of 79.6 to 80.5 °C.

The molecule `Fc1ccc2c(C3=CCC4(CC3)OCCO4)c[nH]c2c1` returned a melting point of 196 to 197 °C.

Turning to `COC1=CC(O)(SC(=O)N(C)C)C([N+](=O)[O-])C=C1` (stereo not drawn), the melting point came to 101 °C.

As for `CC(C)CC(=O)Nc1c(C(=O)c2cccc(Cl)c2)[nH]c2ccc([N+](=O)[O-])cc12`, the melting point lay in the range of 197 to 199 °C.

With `CNc1ccc(/C=C/c2c(F)cccc2Cl)cc1`, the melting point lay within 43 to 45 °C.

`CCCCCc1cc2c(nc(O)n2CCCNC(C)=O)c(N)n1` returned a melting point of 189 to 191 °C.

The molecule `CCOc1cc2c(cc1OCC)C1CC(=O)C(CC)CN1CC2` (stereo not drawn) displayed a melting point of 115 to 118 °C.

The molecule `O=C(ON1C(=O)CCC1=O)c1ccc(-c2ccc(S(=O)(=O)N(CCO)CCO)cc2)[nH]c1=O` yielded a melting point of 213 to 216 °C.

For `O=COCCCCCC(=O)NC[C@@H]1CN2C(=O)C[C@H]2O1` (racemic), the melting point is 61.5 to 63 °C.
